Measurements from article PMC12051620, “Molecular basis underlying the specificity of an antagonist AA92593 for mammalian melanopsins” (The Journal of Biological Chemistry, 2025).

Key:
[1] = system: jumping spider rhodopsin-1 Y207^5.42F; assay: GsX GloSensor assay with Gsα/q11; type: cell-based; conditions: 16.7 μM AA92593, COS-1 cells
Excerpt: (§1) We next tested the effect of AA92593 on jumping spider rhodopsin-1, a Gq-coupled visual opsin but not melanopsin (see Figs. 2, S2, and S3) ([41]). Similar to non-mammalian-type and invertebrate melanopsins, jumping spider rhodopsin-1 was not sensitive to AA92593 as assessed using the GsX GloSensor assay (Fig. 7L). […] The introduction of I189^ECL2W/Y207^5.42F impaired the light-dependent cAMP responses even in the absence of AA92593 (Fig. S11). Taken together, the non-melanopsin Gq-coupled opsin cannot be functionally converted to an AA92593-sensitive type by site-directed mutagenesis, in contrast to non-mammalian-type and invertebrate melanopsins.
(§2) For GloSensor assay, opsins, GloSensor assay sensor (coded by pGlo-22F), and NanoBiT-tagged G proteins were transiently expressed in COS-1 cells (kindly provided from Dr David Farrens, Oregon Health and Science University) using PEI as described previously ([24], [52]). […] For GFP-fluorescence microscopy, a 35-mm cell culture dish (IWAKI) was transfected with 2 μg melanopsin-GFP plasmid and 8 μg PEI in 400 μl Opti-mem and 1.2 ml D-MEM. […]
(§3) The transfected COS-1 cells were incubated at 37 °C, 5% CO2 for 2 days, and the medium was aspirated and exchanged with 50 μl of HBSS (145 mM NaCl, 10 mM D-glucose, 5 mM KCl, 1 mM MgCl2, 1.7 mM CaCl2, 1.5 mM NaHCO3, 10 mM Hepes, pH 7.4), containing 33.3, 20, 10, 2, 0.2, 0.02, 0.002, or 0 μM AA92593, 0.5% dimetyl sulfoxide (DMSO), and 4% (vol/vol) GloSensor cAMP reagent stock solution. […] Then, the cells were incubated at room temperature for 1 h, and luminescence changes were monitored. After incubation of the cells with AA92593, luminescence measurement was interrupted, the plate was ejected, and the cells were added with 50 μl of HBSS containing 0.2 μM 9-cis-retinal. […] Luminescence was measured using GM-2000 or GM-3510 microplate reader (Promega). Luminescence level of each well was measured every 30 s with integration time of 0.6 to 0.9 s. […] After illumination, luminescence measurement was resumed. The measured luminescence levels were normalized to the level at the starting point (time = 0 min). […]

[2] = system: jumping spider rhodopsin-1 M94^2.61F/T188^ECL2S/L269^6.52S; assay: GsX GloSensor assay with Gsα/q11; type: cell-based; conditions: 16.7 μM AA92593, COS-1 cells
Excerpt: as §1, §2, §3

[3] = system: jumping spider rhodopsin-1 I189^ECL2W; assay: GsX GloSensor assay with Gsα/q11; type: cell-based; conditions: 16.7 μM AA92593, COS-1 cells
Excerpt: as §1, §2, §3

human melanopsin = target: T1, human melanopsin (Homo sapiens, UniProt Q9UHM6); design: the C-terminal amino acid residues (94, 140, 200, 214, 296, and 308 residues); expressed in transfected cells; method as in PMID 23974117; conditions: CHO cells; calcium imaging; 9-cis-retinal incubation several minutes; read-out: IC50 reported in the previous study; cited from earlier work
T1 sequence (Q9UHM6 1-384 limits assumed): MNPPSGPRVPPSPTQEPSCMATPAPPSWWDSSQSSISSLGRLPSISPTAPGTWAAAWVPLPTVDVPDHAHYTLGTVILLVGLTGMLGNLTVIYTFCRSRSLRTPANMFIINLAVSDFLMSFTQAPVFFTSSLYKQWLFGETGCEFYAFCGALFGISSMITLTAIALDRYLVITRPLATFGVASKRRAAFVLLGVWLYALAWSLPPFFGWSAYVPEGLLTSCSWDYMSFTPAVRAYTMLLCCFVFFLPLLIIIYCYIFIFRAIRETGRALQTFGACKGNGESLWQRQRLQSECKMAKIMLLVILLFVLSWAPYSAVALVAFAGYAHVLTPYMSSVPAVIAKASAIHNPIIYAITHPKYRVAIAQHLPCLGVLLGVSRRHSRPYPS

In the case of `COc1ccc(S(=O)(=O)N2CCCCC2)cc1C` [AA92593], the “change in sensitivity to AA92593 vs WT” value [1] is reported as “did not increase”, the “change in sensitivity to AA92593 vs WT” value [2] is reported as “did not increase” and the “change in sensitivity to AA92593 vs WT” value [3] is reported as “did not increase”. The IC50 (human melanopsin) was 665 nM.
